Laboratory results taken from patent US11708318B2, “Polymorphic forms of RAD1901-2HCL” (Radius Pharmaceuticals, Inc., priority 2017, dated 2023).
“Also recorded” adds a separate entry of the source.

What was measured:
Format in all cases: physicochemical
[1] = Gravimetric Vapour Sorption (GVS), with XRPD of the recovered sample
Protocol: Sorption isotherms were obtained using a SMS DVS Intrinsic moisture sorption analyzer, controlled by DVS Intrinsic Control software v1.0.1.2 (or v 1.0.1.3). The sample temperature was maintained at 25° C. by the instrument controls. The humidity was controlled by mixing streams of dry and wet nitrogen, with a total flow rate of 200 ml/min. The relative humidity was measured by a calibrated Rotronic probe (dynamic range of 1.0-100% RH), located near the sample. The weight change, (mass relaxation) of the sample as a function of % RH was constantly monitored by the microbalance (accuracy ±0.005 mg).
A sample (e.g., 20 mg) was placed in a tared mesh stainless steel basket under ambient conditions. The sample was loaded and unloaded at 40% RH and 25° C. (typical room conditions). A moisture sorption isotherm was performed as outlined below (2 scans giving 1 complete cycle). Standard isotherms were performed at 25° C. at 10% RH intervals over a 0-90% RH range. Data analysis was carried out using Microsoft Excel using DVS Analysis Suite v6.2 (or 6.1 or 6.0).
In a cycle of 2 scans, the first scan was performed with adsorption of 40-90% RH, followed by a second scan with desorption of 90-0% RH and adsorption of 0-40% RH, with intervals of 10% RH, at 25° C. with stability dm/dt of 0.002% ° C./min. The sorption time was 6 hr time out.
The sample was recovered after completion of the isotherm and re-analyzed by XRPD. Custom moisture sorption methods were also performed at 25° C. at fixed % RH intervals over a 0-95% RH range, with the purpose to fully understand the sorption/desorption behavior of the compound under elevated conditions.
To further explore the humidity behavior of Sample 1 (Form 1) upon exposure to high RH (>90%), custom GVS experiments were designed and carried out. Initially, the sample was treated by holding at 90 and then 95% RH for ˜12 hours to see if hydrate formation could be observed (HighRH method of Steps 1 and 2 of Table 2, FIGS. 6C-6D).
To test the stability of the hydrated state, GVS method HighRH_Desorp_3 was designed with a desorption step and subsequent adsorption (see Table 2 with steps 1-4, FIGS. 6E-6F).
Finally, to ensure complete conversion to the anhydrous and hydrated forms, a GVS experiment was designed to increase both the length of the desorption step at 0% RH, and the adsorption step at 95% RH, respectively (Table 3). Based on the weight stabilization observed in the kinetic plots for Sample 1 in HighRH and HighRH_Desorp_3 methods discussed above (FIGS. 6D and 6F), a holding time of 800 mins at 0% RH and 1600 mins at 95% RH were chosen. A double cycle was also recorded for this experiment to observe whether the sample would return to Form 1 or form a mixed anhydrous/hydrated species (see Table 3, FIGS. 6G-6H).

[2] = Storage at elevated temperature/humidity, analysed by XRPD
Protocol: Samples 1 and 2 were characterized by XRPD at various conditions. XRPD patterns were collected for the samples at ambient condition as the samples were provided; at variable temperature (VT-XRPD); at variable humidity (VH-XRPD); after the samples were exposed to 40° C./75% RH for 1 week and 25° C./97% RH for 1 week, respectively; and after a GVS measurement wherein the samples were exposed to 0-90% RH. Samples 1 and 2 were also characterized by ^1H NMR, TGA, DSC, KF, IC, GVS (exposed to 0-90% RH), PLM, SEM, and HPLC (Table 5).

[3] = Variable humidity XRPD (VH-XRPD); conditions: ~95% RH, 24 hr
Protocol: Samples run under non-ambient conditions were prepared by gently packing into a cavity, cut into a silicon wafer to obtain a flat surface and mounted onto a humidity stage with an Ansyco controller and humidity sensor positioned directly next to the sample holder. The data were collected at 298.15 K with water temperature of 35.0° C., in an angular range of 3 to 31° 2θ, with a step size of 0.025° 2θ, a collection time of 2.0 sec/step, and a collection time at each % RH was 41 min 28 sec. X-Ray Powder Diffraction (XRPD) patterns were collected at variable humidity values from 0 to 95% RH, based upon the humidity behavior of each compound observed during GVS experiments (described herein). For each Variable Humidity X-Ray Powder Diffraction (VH-XRPD) experiment performed, the % RH values selected are provided alongside the relevant experimental result. Full tables of detailing the % RH value at each collection point and the associated delay time at each value are provided in Tables 10-12. To fully characterize the polymorphic behavior of Samples 1 and 2 at variable humidity, and to collect reference XRPD patterns for the ‘pure’ anhydrous Form 1 and Form 2 material, and ‘pure’ hydrated Form 3 material, Variable Humidity (VH) XRPD experiments were conducted on Samples 1 and 2. Initially, VH-XRPD experiments were conducted using Sample 1, and XRPD diffractograms were collected at selected humidity values, in line with those collected during GVS experiments (see FIGS. 6E-6F). XRPD diffractograms were collected initially at ambient RH, then collected over 24 hours at ˜95% RH and finally collected during desorption steps to 0% RH and over 10 hours at 0% RH (see FIG. 4C). […]

[4] = Solubility assessment of Sample 1 (majorly Form 1) in 24 solvent systems

## CCNCCc1ccc(CN(CC)c2cc(OC)ccc2[C@@H]2CCc3cc(O)ccc3C2)cc1.Cl.Cl [Sample 1]
[1]; 25° C., 0-90% RH
  GVS uptake 0-90% RH: 1.8% wt.
[1]; HighRH method, held at 95% RH for ~12 hours
  GVS uptake when held at 95% RH: 5-6 % wt.
[1]; above 90% RH
  Solid form on exposure to high RH (>90%) by GVS: irreversibly converted to a hydrate (Form 3)
[1]; double cycle, 1600 mins at 95% RH, 800 mins at 0% RH
  XRPD post GVS (HighRH_DoubleCycle_2 method): formation of the hydrate (Form 3)
[1]; held at 90 and then 95% RH for ~12 hours
  XRPD post GVS (HighRH method): mixture of states or incomplete conversion
[1]; single cycle: to 95% RH, desorption to 0% RH, adsorption 0-40% RH
  XRPD post GVS (HighRH_Desorp_3 method): mixture of Form 1 and Form 3
[2]; 25° C./97% RH, 1 week
  XRPD after storage at 25° C./97% RH for 1 week: Form 3
[2]; high RH (>90%), e.g. for 7 days
  Solid form on prolonged exposure to high RH (>90%): converted to the hydrate Form 3
[3]
  VH-XRPD at ~95% RH over 24 hr: slow conversion towards the hydrated state; also recorded: Form 3 over 24
[4]; alcohols, esters, hydrocarbon solvents
  Solubility in alcohols, esters, and hydrocarbon solvents: low solubility
[4]; t-butanol/water (1:1)
  Solubility in t-butanol/water (1:1): high solubility
